How the values were obtained:
Hepatitis B virus [1] = test: Antiviral activity against HBV assessed as inhibition of viral early antigen secretion; assay type: functional, organism-based
Hepatitis B virus [2] = test: Antiviral activity against HBV assessed as inhibition of viral surface antigen secretion; assay type: functional, organism-based
[3] = Cytotoxicity against human HepG2(2.2.15) cells; assay type: cell-based

SMILES	IC50 (Hepatitis B virus [1]) [µM]	IC50 (Hepatitis B virus [2]) [µM]	CC50 [3] [µM]
CCCCCCCC(=O)O[C@@H](C[C@@H](C)C1=C2C[C@H](OC(=O)CCCCCCC)[C@H]3[C@@]4(C)CCC(=O)C(C)(C)[C@@H]4CC[C@]3(C)[C@@]2(C)CC1)[C@@H](OC(=O)CCCCCCC)C(C)(C)OC(=O)CCCCCCC	> 1600	> 1600	> 1600
C[C@H](C[C@H](OC(=O)c1ccccc1I)[C@@H](OC(=O)c1ccccc1I)C(C)(C)OC(=O)c1ccccc1I)C1=C2C[C@H](OC(=O)c3ccccc3I)[C@H]3[C@@]4(C)CCC(=O)C(C)(C)[C@@H]4CC[C@]3(C)[C@@]2(C)CC1	> 1400	> 1400	> 1400
C[C@H](C[C@H](OC(=O)c1cccc([N+](=O)[O-])c1)[C@@H](OC(=O)c1cccc([N+](=O)[O-])c1)C(C)(C)OC(=O)c1cccc([N+](=O)[O-])c1)C1=C2C[C@H](OC(=O)c3cccc([N+](=O)[O-])c3)[C@H]3[C@@]4(C)CCC(=O)C(C)(C)[C@@H]4CC[C@]3(C)[C@@]2(C)CC1	> 1100	> 1100	> 1100
C[C@H](C[C@H](OC(=O)/C=C/c1ccccc1)[C@@H](OC(=O)/C=C/c1ccccc1)C(C)(C)OC(=O)/C=C/c1ccccc1)C1=C2C[C@H](OC(=O)/C=C/c3ccccc3)[C@H]3[C@@]4(C)CCC(=O)C(C)(C)[C@@H]4CC[C@]3(C)[C@@]2(C)CC1	> 1200	> 1200	> 1200
C[C@H](C[C@H](OC(=O)COc1ccccc1)[C@@H](OC(=O)COc1ccccc1)C(C)(C)OC(=O)COc1ccccc1)C1=C2C[C@H](OC(=O)COc3ccccc3)[C@H]3[C@@]4(C)CCC(=O)C(C)(C)[C@@H]4CC[C@]3(C)[C@@]2(C)CC1	> 1400	> 1400	> 1400
C[C@H](C[C@H](OC(=O)/C=C/c1ccccc1Cl)[C@@H](OC(=O)/C=C/c1ccccc1Cl)C(C)(C)OC(=O)/C=C/c1ccccc1Cl)C1=C2C[C@H](OC(=O)/C=C/c3ccccc3Cl)[C@H]3[C@@]4(C)CCC(=O)C(C)(C)[C@@H]4CC[C@]3(C)[C@@]2(C)CC1	> 1400	> 1400	> 1400
C[C@H](C[C@H](OC(=O)CN1C(=O)c2ccccc2C1=O)[C@@H](OC(=O)CN1C(=O)c2ccccc2C1=O)C(C)(C)OC(=O)CN1C(=O)c2ccccc2C1=O)C1=C2C[C@H](OC(=O)CN3C(=O)c4ccccc4C3=O)[C@H]3[C@@]4(C)CCC(=O)C(C)(C)[C@@H]4CC[C@]3(C)[C@@]2(C)CC1	> 1300	> 1300	> 1300
CCCCC(=O)O[C@@H](C[C@@H](C)C1=C2C[C@H](OC(=O)CCCC)[C@H]3[C@@]4(C)CCC(=O)C(C)(C)[C@@H]4CC[C@]3(C)[C@@]2(C)CC1)[C@@H](OC(=O)CCCC)C(C)(C)OC(=O)CCCC	> 1400	> 1400	> 1400
C[C@H](C[C@H](OC(=O)c1ccccc1)[C@@H](OC(=O)c1ccccc1)C(C)(C)OC(=O)c1ccccc1)C1=C2C[C@H](OC(=O)c3ccccc3)[C@H]3[C@@]4(C)CCC(=O)C(C)(C)[C@@H]4CC[C@]3(C)[C@@]2(C)CC1	> 1400	> 1400	> 1400
C[C@H](C[C@H](OC(=O)c1ccc(Cl)cc1Cl)[C@@H](OC(=O)c1ccc(Cl)cc1Cl)C(C)(C)OC(=O)c1ccc(Cl)cc1Cl)C1=C2C[C@H](OC(=O)c3ccc(Cl)cc3Cl)[C@H]3[C@@]4(C)CCC(=O)C(C)(C)[C@@H]4CC[C@]3(C)[C@@]2(C)CC1	> 1000	> 1000	> 1000
C[C@H](C[C@H](OC(=O)COc1cc(Cl)c(Cl)cc1Cl)[C@@H](OC(=O)COc1cc(Cl)c(Cl)cc1Cl)C(C)(C)OC(=O)COc1cc(Cl)c(Cl)cc1Cl)C1=C2C[C@H](OC(=O)COc3cc(Cl)c(Cl)cc3Cl)[C@H]3[C@@]4(C)CCC(=O)C(C)(C)[C@@H]4CC[C@]3(C)[C@@]2(C)CC1	> 1200	> 1200	> 1200

Reference: ChEMBL document CHEMBL1154649, “Anti-HBV agents. Part 3: preliminary structure-activity relationships of tetra-acylalisol A derivatives as potent hepatitis B virus inhibitors” (Bioorg Med Chem Lett, 2009)
